Laboratory results reported in patent US9056874B2, “Complement pathway modulators and uses thereof” (NOVARTIS AG, priority 2012, dated 2015).

The molecules below were run against T1, factor B (Homo sapiens, UniProt P00751) (assay: assay of Biological Example 2.7). Settings: assay of Biological Example 2.7 (Table 2).
Format: binding
Design: made in house; host or cells: drosophila cells
Target sequence in this assay (P00751 26-764): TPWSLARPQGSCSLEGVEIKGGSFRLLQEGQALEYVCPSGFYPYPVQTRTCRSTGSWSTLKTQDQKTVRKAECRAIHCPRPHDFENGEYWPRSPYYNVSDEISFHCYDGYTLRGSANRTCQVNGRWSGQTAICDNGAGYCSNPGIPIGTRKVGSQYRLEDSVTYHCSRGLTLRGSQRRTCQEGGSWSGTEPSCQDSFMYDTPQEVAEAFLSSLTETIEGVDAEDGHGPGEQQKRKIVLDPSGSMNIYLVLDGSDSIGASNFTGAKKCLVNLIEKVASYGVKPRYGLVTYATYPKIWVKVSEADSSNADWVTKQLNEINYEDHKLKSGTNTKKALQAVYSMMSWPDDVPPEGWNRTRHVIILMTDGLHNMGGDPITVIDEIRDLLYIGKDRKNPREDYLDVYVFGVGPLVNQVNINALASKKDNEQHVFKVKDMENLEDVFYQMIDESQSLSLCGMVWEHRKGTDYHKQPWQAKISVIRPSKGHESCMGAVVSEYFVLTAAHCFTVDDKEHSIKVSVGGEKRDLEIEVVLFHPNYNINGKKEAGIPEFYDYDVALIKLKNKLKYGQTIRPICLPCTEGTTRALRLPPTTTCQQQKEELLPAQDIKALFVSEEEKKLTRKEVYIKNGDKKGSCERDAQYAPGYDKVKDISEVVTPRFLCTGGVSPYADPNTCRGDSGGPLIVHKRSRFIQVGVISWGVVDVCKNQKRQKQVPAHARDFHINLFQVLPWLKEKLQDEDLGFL
With COc1cc(C)c2[nH]ccc2c1C(C)(OC)c1nc2cc(C#N)ccc2o1 (single isomer, unassigned; (-)) [137-K b) (−), (−)-2-(1-methoxy-1-(5-methoxy-7-methyl-1H-indol-4-yl)ethyl)benzo[d]oxazole-5-carbonitrile] the IC50 was 0.2 µM.
For CNC(C)(c1nc2cc(C#N)ccc2o1)c1c(OC)cc(C)c2[nH]ccc12 (single isomer, unassigned) [137-M b) (tr = 2.9 min), (+) or (−)-2-(1-(5-methoxy-7-methyl-1H-indol-4-yl)-1-(methylamino)ethyl)benzo[d]oxazole-5-carbonitrile], the IC50 was 0.37 µM.
Molecule COc1cc(C)c2[nH]ccc2c1C(CC(C)CO)c1nc2cc(C#N)ccc2[nH]1 (racemic) [Example 151-C, (±)-2-(4-Hydroxy-1-(5-methoxy-7-methyl-1H-indol-4-yl)-3-methylbutyl)-1H-benzo[d]imidazole-5-carbonitrile] has an IC50 of 0.092 µM.
CCc1cc(C)c2[nH]ccc2c1C(C)(N)c1nc2cc(C#N)ccc2o1 (single isomer, unassigned) [137-F b) (tr = 3.3 min), (+) or (−)-2-(1-amino-1-(5-ethyl-7-methyl-1H-indol-4-yl)ethyl)benzo[d]oxazole-5-carbonitrile] gave an IC50 of 0.17 µM.
Molecule COc1cc(C)c2[nH]ccc2c1C(NCC(=O)O)(c1nc2cc(C#N)ccc2[nH]1)C(F)(F)F (racemic) [Example 140-B, (±)-2-((1-(5-cyano-1H-benzo[d]imidazol-2-yl)-2,2,2-trifluoro-1-(5-methoxy-7-methyl-1H-indol-4-yl)ethyl)amino)acetic acid] has an IC50 of 0.34 µM.
Work on COc1cc(C)c2[nH]ccc2c1C(C)(CCC(=O)O)c1nc2cc(C#N)ccc2[nH]1 (racemic) [Example 155-M, (±)-4-(5-Cyano-1H-benzo[d]imidazol-2-yl)-4-(5-methoxy-7-methyl-1H-indol-4-yl)pentanoic acid] yielded an IC50 of 0.02 µM.
In the case of COc1cc(C)c2[nH]ccc2c1C(c1nc2cc(C#N)ccc2[nH]1)C(C)CO (single isomer, unassigned; diastereomer b) [Example 147-F, (±)-2-(3-hydroxy-1-(5-methoxy-7-methyl-1H-indol-4-yl)-2-methylpropyl)-1H-benzo[d]imidazole-5-carbonitrile (Diastereomer B)], the IC50 is reported as 0.1 µM.
With COc1cc(C)c2[nH]ccc2c1C1(c2nc3cc(C#N)ccc3[nH]2)CC1C(=O)O (racemic) [Example 142-D, (±)-2-(5-Cyano-1H-benzo[d]imidazol-2-yl)-2-(5-methoxy-7-methyl-1H-indol-4-yl)cyclopropanecarboxylic acid] the IC50 was 0.79 µM.
COc1c(F)c(C)c2[nH]ccc2c1C(C)(N)c1nc2cc(C#N)ccc2[nH]1 (stereo not drawn) [Example 137-G] gave an IC50 of 0.029 µM.
In the case of CCc1cc(C)c2[nH]ccc2c1C(C)(N)c1nc2cc(C#N)ccc2o1 (single isomer, unassigned) [137-F b) (tr = 4.9 min), (−) or (+)-2-(1-amino-1-(5-ethyl-7-methyl-1H-indol-4-yl)ethyl)benzo[d]oxazole-5-carbonitrile], the IC50 is reported as 0.01 µM.
[2H]C([2H])([2H])OC(c1nc2cc(C#N)ccc2[nH]1)(c1c(OC)cc(C)c2[nH]ccc12)C(F)(F)F (single isomer, unassigned; (-)) [137-J b) (−), (−)-2-(2,2,2-trifluoro-1-(^2H3)-methoxy-1-(5-methoxy-7-methyl-1H-indol-4-yl)ethyl)-1H-benzo[d]imidazole-5-carbonitrile] gave an IC50 of 0.01 µM.
COc1cc(C)c2[nH]ccc2c1C(OCc1nnc(C)o1)(c1nc2cc(C#N)ccc2[nH]1)C(F)(F)F (racemic) [Example 35-L, (±)-2-(2,2,2-Trifluoro-1-(5-methoxy-7-methyl-1H-indol-4-yl)-1-((5-methyl-1,3,4-oxadiazol-2-yl)methoxy)ethyl)-1H-benzo[d]imidazole-5-carbonitrile] was tested, and the IC50 was 0.24 µM.
Work on COc1cc(C)c2[nH]ccc2c1C(CC(=O)O)c1nc2cc(C#N)ccc2[nH]1 (racemic) [Example 145-D, (±)-3-(5-Cyano-1H-benzo[d]imidazol-2-yl)-3-(5-methoxy-7-methyl-1H-indol-4-yl)propanoic acid] yielded an IC50 of 0.041 µM.
In the case of COc1cc(C)c2[nH]ccc2c1C(N)c1nc2cc(C#N)ccc2s1 (stereo not drawn) [Example 137-E], the IC50 is reported as 0.27 µM.
Molecule COc1cc(C)c2[nH]ccc2c1C(Cc1nn[nH]n1)c1nc2cc(C#N)ccc2[nH]1 (racemic) [Example 152, (±)-2-(1-(5-Methoxy-7-methyl-1H-indol-4-yl)-2-(2H-tetrazol-5-yl)ethyl)-1H-benzo[d]imidazole-5-carbonitrile] has an IC50 of 0.067 µM.
Molecule COc1cc(C)c2[nH]ccc2c1C(C)(O)c1cc2ccc(C#N)cc2[nH]1 (stereo not drawn) [Example 137-T] has an IC50 of 0.05 µM.
COc1cc(C)c2[nH]ccc2c1C(C)(CCC(=O)O)c1nc2cc(C#N)ccc2o1 (racemic) [Example 150-C, (±)-4-(5-cyanobenzo[d]oxazol-2-yl)-4-(5-methoxy-7-methyl-1H-indol-4-yl)pentanoic acid] gave an IC50 of 1.02 µM.
For COc1cc(C)c2[nH]ccc2c1C(C)(OC)c1nc2ccc(C#N)cc2s1 (stereo not drawn) [Example 137-W], the IC50 was 5.22 µM.
For COc1cc(C)c2[nH]ccc2c1C1(c2nc3cc(C#N)ccc3o2)CC1C(=O)O (racemic) [Example 143, (±)-2-(5-Cyanobenzo[d]oxazol-2-yl)-2-(5-methoxy-7-methyl-1H-indol-4-yl)cyclopropanecarboxylic acid], the IC50 was 7.2 µM.
COc1cc(C)c2[nH]ccc2c1C(N)(c1nc2cc(C#N)ccc2o1)C(F)(F)F (single isomer, unassigned) [137-B b) (tr = 2.7 min), (+) or (−)-2-(1-amino-2,2,2-trifluoro-1-(5-methoxy-7-methyl-1H-indol-4-yl)ethyl)benzo[d]oxazole-5-carbonitrile] showed an IC50 of 0.02 µM.
Molecule COc1cc(C)c2[nH]ccc2c1C(CCC(=O)O)c1nc2cc(C#N)ccc2[nH]1 (racemic) [Example 146-C, (±)-4-(5-Cyano-1H-benzo[d]imidazol-2-yl)-4-(5-methoxy-7-methyl-1H-indol-4-yl)butanoic acid] has an IC50 of 0.059 µM.
In the case of Cc1cc(C2CC2)c(C(OCC(=O)O)(c2nc3cc(C#N)ccc3[nH]2)C(F)(F)F)c2cc[nH]c12 (racemic) [Example 109-C, (±)-2-(1-(5-Cyano-1H-benzo[d]imidazol-2-yl)-1-(5-cyclopropyl-7-methyl-1H-indol-4-yl)-2,2,2-trifluoroethoxy)acetic acid], the IC50 is reported as 0.065 µM.

The molecules below were run against T1, factor B (assay: factor B inhibition assay of Biological Example 1). Settings: IC50 (nM), assay of Biological Example 1 (Table 1).
Format: biochemical
Design: CVF-Bb complex prepared from purified cobra venom factor (1 μM), recombinant human complement factor B; made in house; host or cells: drosophila cells (factor B); E. coli (factor D used to form the complex)
Target sequence in this assay (P00751 260-764 limits assumed): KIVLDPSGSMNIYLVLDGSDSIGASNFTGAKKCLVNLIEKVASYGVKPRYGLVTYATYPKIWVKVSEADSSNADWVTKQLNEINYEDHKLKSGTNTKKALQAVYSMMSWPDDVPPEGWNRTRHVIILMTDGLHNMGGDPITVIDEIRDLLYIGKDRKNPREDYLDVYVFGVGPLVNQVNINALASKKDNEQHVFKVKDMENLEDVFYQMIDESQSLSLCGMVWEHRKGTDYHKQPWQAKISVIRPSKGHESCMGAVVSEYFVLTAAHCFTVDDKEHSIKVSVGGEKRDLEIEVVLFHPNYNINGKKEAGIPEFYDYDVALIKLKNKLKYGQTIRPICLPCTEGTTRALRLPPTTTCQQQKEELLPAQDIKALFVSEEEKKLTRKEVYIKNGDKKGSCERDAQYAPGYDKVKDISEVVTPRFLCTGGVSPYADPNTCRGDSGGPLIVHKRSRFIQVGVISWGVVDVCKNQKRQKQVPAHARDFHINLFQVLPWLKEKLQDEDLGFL
Target sequence in this assay (Q91132 23-649 partner limits assumed): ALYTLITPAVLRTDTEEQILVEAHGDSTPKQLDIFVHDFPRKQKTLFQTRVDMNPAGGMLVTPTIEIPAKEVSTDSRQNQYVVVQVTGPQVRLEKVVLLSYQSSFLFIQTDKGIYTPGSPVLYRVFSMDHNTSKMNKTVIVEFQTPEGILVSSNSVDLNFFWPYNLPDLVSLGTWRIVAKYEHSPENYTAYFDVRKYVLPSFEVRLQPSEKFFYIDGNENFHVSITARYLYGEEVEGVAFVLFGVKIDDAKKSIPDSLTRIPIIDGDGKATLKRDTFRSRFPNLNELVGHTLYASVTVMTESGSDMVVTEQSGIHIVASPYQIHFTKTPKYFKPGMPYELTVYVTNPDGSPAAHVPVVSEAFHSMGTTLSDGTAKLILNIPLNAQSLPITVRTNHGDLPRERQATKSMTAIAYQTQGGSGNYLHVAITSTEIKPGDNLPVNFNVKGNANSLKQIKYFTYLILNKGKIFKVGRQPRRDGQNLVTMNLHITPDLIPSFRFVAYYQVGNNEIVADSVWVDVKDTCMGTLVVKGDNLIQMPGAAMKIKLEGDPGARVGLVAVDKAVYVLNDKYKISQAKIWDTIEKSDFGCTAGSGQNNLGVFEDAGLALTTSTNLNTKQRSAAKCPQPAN
Target sequence in this assay (Q91132 733-984 partner limits assumed): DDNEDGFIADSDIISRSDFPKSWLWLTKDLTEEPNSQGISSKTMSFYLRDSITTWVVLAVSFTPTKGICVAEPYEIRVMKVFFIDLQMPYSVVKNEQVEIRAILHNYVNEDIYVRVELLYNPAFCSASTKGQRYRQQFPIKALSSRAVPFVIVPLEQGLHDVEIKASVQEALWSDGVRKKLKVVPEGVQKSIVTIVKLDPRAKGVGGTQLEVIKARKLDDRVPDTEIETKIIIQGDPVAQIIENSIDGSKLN
Target sequence in this assay (Q91132 1264-1642 partner limits assumed): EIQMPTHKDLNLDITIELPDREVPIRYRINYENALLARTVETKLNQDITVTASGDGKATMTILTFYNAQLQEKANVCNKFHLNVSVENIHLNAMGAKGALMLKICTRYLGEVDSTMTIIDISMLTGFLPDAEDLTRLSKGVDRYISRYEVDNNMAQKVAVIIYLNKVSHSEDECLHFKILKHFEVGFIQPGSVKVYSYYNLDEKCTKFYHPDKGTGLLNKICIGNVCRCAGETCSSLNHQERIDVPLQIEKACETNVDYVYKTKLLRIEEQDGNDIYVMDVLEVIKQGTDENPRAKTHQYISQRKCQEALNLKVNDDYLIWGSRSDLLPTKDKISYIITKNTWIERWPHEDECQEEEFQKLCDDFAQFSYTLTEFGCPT
In the case of Cc1cc(C)c2[nH]cc(-c3cnn(C)c3)c2c1C(O)c1nc2cc(C#N)ccc2[nH]1 (single isomer, unassigned) [119 b) (tr = 2.35 min), (−) or (+)-2-((5,7-dimethyl-3-(1-methyl-1H-pyrazol-4-yl)-1H-indol-4-yl)(hydroxy)methyl)-1H-benzo[d]imidazole-5-carbonitrile], the IC50 is reported as 12600 nM.
Cc1cc(Br)c(C(N)(c2nc3cc(C#N)ccc3[nH]2)C(F)(F)F)c2cc[nH]c12 (single isomer, unassigned; (+)) [105-B b) (+), (+)-2-(1-amino-1-(5-bromo-7-methyl-1H-indol-4-yl)-2,2,2-trifluoroethyl)-1H-benzo[d]imidazole-5-carbonitrile] gave an IC50 of 90 nM.
Work on Cc1cc(Cl)c(C(O)c2nc3cc(C#N)ccc3[nH]2)c2cc[nH]c12 (single isomer, unassigned; (-)) [67-E b) (−), (−)-2-((5-chloro-7-methyl-1H-indol-4-yl)(hydroxy)methyl)-1H-benzo[d]imidazole-5-carbonitrile] yielded an IC50 of 1180 nM.
In the case of Cc1cc(OCC(=O)O)c(C(C)(O)c2nc3cc(C#N)ccc3[nH]2)c2cc[nH]c12 (racemic) [Example 32-B, (±)-2-((4-(1-(5-Cyano-1H-benzo[d]imidazol-2-yl)-1-hydroxyethyl)-7-methyl-1H-indol-5-yl)oxy)acetic acid], the IC50 is reported as 1410 nM.
Molecule CNC(c1nc2cc(C#N)ccc2[nH]1)(c1c(Br)cc(C)c2[nH]ccc12)C(F)(F)F (single isomer, unassigned; (-)) [106 b) (−), (−)-2-(1-(5-bromo-7-methyl-1H-indol-4-yl)-2,2,2-trifluoro-1-(methylamino)ethyl)-1H-benzo[d]imidazole-5-carbonitrile] has an IC50 of 8 nM.
CCOc1cc(C)c2[nH]ccc2c1C(C)(O)c1nc2cc(C#N)ccc2[nH]1 (single isomer, unassigned; (+)) [26-D b) (+), (+)-2-(1-(5-ethoxy-7-methyl-1H-indol-4-yl)-1-hydroxyethyl)-1H-benzo[d]imidazole-5-carbonitrile] was tested, and the IC50 was 360 nM.
Cc1cc(S(C)(=O)=O)c(C(O)(c2nc3cc(C#N)ccc3[nH]2)C(F)(F)F)c2cc[nH]c12 (single isomer, unassigned; (+)) [14-D b) (+), (+)-2-(2,2,2-trifluoro-1-hydroxy-1-(7-methyl-5-(methylsulfonyl)-1H-indol-4-yl)ethyl)-1H-benzo[d]imidazole-5-carbonitrile] was tested, and the IC50 was 8410 nM.
Cc1cc(C)c2[nH]cc(Br)c2c1Cc1nc2cc(C#N)ccc2[nH]1 [Example 85, 2-((3-bromo-5,7-dimethyl-1H-indol-4-yl)methyl)-1H-benzo[d]imidazole-5-carbonitrile] was tested, and the IC50 was 220 nM.
CCc1cc(C)c2[nH]cc(C(O)C(F)(F)F)c2c1Cc1nc2cc(C#N)ccc2[nH]1 (racemic) [Example 92-B, (±)-2-((5-Ethyl-7-methyl-3-(2,2,2-trifluoro-1-hydroxyethyl)-1H-indol-4-yl)methyl)-1H-benzo[d]imidazole-5-carbonitrile] gave an IC50 of 9750 nM.
Molecule COc1cc(C)c2c(c1C(C)(OC)c1nc3cc(C#N)ccc3[nH]1)CCN2 (single isomer, unassigned; (-)) [124 b) (−), (−)-2-(1-methoxy-1-(5-methoxy-7-methylindolin-4-yl)ethyl)-1H-benzo[d]imidazole-5-carbonitrile] has an IC50 of 11 nM.
Cc1cc(C)c2[nH]ccc2c1C(C)(O)c1nc2cc(C#N)ccc2[nH]1 (single isomer, unassigned; (+)) [76-B b) (+), (+)-2-(1-(5,7-Dimethyl-1H-indol-4-yl)-1-hydroxyethyl)-1H-benzo[d]imidazole-5-carbonitrile] was tested, and the IC50 was 290 nM.
